Laboratory results reported in BindingDB's records for doi:10.1021/acsmedchemlett.7b00164 (Shenyang Pharmaceutical University, 2017).

Assay: Inhibition of PDGFR in mouse NIH/3T3 cells assessed as reduction in recombinant human PDGF-BB-induced cell proliferation after 42 hrs by cell titer 96 aqueous one solution based assay

IC50	SMILES
110 nM	COC(=O)c1ccc2c(c1)NC(=O)/C2=C(\Nc1ccc(N2CCC(CN3CCN(C)CC3)C2=O)cc1)c1ccccc1 (centres undefined)
100 nM	COC(=O)c1ccc2c(c1)NC(=O)/C2=C(\Nc1ccc2c(c1)N(C(=O)CN1CCOCC1)CC2)c1ccccc1
100 nM	COC(=O)c1ccc2c(c1)NC(=O)/C2=C(\Nc1ccc2c(c1)N(C(=O)Cn1cncn1)CC2)c1ccccc1
110 nM	COC(=O)c1ccc2c(c1)NC(=O)/C2=C(\Nc1ccc(N2C(=O)CC[C@H]2CN2CCN(C)CC2)cc1)c1ccccc1
110 nM	COC(=O)c1ccc2c(c1)NC(=O)/C2=C(\Nc1ccc2c(c1)N(C(=O)Cn1cccn1)CC2)c1ccccc1
260 nM	COC(=O)c1ccc2c(c1)NC(=O)/C2=C(\Nc1ccc2c(c1)N(C(=O)CN1CCCC1=O)CC2)c1ccccc1
97 nM	COC(=O)c1ccc2c(c1)NC(=O)/C2=C(\Nc1ccc(N2C(=O)CC[C@@H]2CN2CCN(C)CC2)cc1)c1ccccc1
150 nM	COC(=O)c1ccc2c(c1)NC(=O)/C2=C(\Nc1ccc2c(c1)N(C(=O)CN1CC(C)OC(C)C1)CC2)c1ccccc1 (centres undefined)
85 nM	COC(=O)c1ccc2c(c1)NC(=O)/C2=C(\Nc1ccc(N(C)C(=O)CN2CCN(C)CC2)cc1)c1ccccc1 [BIBF-1120]
